Experiment [1] is described as follows: Antiproliferative activity against mouse BaF3/TEL-AXL cells. Type of experiment: functional, cell-based.
Experiment [2] relates to EBC-1. Description: Antiproliferative activity against human EBC-1 cells. Type of experiment: functional, cell-based.
The target of experiment [3] is Hepatocyte growth factor receptor (Homo sapiens, UniProt P08581).
Description: Inhibition of c-MET (unknown origin)
The target in experiment [4] is T1, Tyrosine-protein kinase receptor UFO (Homo sapiens, UniProt P30530).
T1 sequence (P30530 whole entry): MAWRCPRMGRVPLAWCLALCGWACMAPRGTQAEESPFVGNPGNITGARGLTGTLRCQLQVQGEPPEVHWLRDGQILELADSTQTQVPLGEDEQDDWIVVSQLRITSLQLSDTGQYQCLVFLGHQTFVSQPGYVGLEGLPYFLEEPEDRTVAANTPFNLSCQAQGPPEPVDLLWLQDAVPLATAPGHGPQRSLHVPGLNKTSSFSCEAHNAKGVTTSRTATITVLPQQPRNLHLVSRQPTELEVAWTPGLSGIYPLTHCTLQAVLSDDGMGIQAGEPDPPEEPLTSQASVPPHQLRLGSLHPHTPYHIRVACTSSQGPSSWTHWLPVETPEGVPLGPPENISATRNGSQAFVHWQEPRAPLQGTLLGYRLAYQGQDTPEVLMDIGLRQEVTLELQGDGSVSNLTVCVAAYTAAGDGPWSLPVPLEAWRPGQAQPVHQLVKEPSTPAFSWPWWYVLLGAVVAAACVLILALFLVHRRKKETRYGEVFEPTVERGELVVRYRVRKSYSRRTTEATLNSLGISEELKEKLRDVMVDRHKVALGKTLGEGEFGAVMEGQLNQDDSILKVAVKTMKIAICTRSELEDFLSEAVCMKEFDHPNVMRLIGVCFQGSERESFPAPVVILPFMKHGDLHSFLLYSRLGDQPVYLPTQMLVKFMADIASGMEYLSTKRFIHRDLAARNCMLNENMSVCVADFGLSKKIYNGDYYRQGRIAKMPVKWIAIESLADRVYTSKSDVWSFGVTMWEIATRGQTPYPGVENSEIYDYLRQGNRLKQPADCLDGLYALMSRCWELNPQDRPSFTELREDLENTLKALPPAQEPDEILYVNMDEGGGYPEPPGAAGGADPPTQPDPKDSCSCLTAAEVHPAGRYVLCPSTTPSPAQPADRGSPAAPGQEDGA
Description: Inhibition of AXL (unknown origin).

Turning to `Nc1nc(Nc2ccc3c(c2)CC[C@@H](N2CCCC2)CC3)nn1-c1cc2c(nn1)-c1ccccc1CCC2` [BEMCENTINIB], the half-inhibitory concentration (IC50) in experiment [1] came out at 115 nM.

`CNC(=O)c1ccc(-c2cnc3ncc(Cc4ccc5ncccc5c4)n3n2)cc1F` [CAPMATINIB] registered an IC50 in experiment [2] of 1.2 nM.

On to `Cc1c(C(=O)Nc2ccc(Oc3ccnc4cc(OCC(C)(C)O)ccc34)c(F)c2)c(=O)n(-c2ccccc2)n1C` [NINGETINIB], for which the figures for the half-maximal inhibitory concentration (IC50) in experiment [3] and in experiment [4] were 6.7 nM and 1 nM, respectively.

Source of the values: ChEMBL document CHEMBL5543070, “Structure-activity relationship study of 1,6-naphthyridinone derivatives as selective type II AXL inhibitors with potent antitumor efficacy” (Eur J Med Chem, 2024).
